According to US12371454B2, “Cyclic peptide compound having Kras inhibitory action” (priority 2019, dated 2025):
Positions of bridges follow the written chain, without caps; N, C: chain ends. Non-standard residues stand in square brackets, D forms with d. Residues, ends and D or L forms follow the SMILES beside them. *: point of attachment. hPhe(3-Cl-4-CF3) = N[C@@H](CCc1ccc(C(F)(F)F)c(Cl)c1)C(=O)O; hPhe(4-CF3) = N[C@@H](CCc1ccc(C(F)(F)F)cc1)C(=O)O; NMePhe(4-Cl) = CN[C@@H](Cc1ccc(Cl)cc1)C(=O)O; NMePhe(4-Me) = CN[C@@H](Cc1ccc(C)cc1)C(=O)O; Phe(3-OMe) = COc1cccc(C[C@H](N)C(=O)O)c1; NMeGly(cPent) = CN[C@H](C(=O)O)C1CCCC1; NMeCha = CN[C@@H](CC1CCCCC1)C(=O)O; NMeChg = CN[C@H](C(=O)O)C1CCCCC1; NMeF = CN[C@@H](Cc1ccccc1)C(=O)O; NMeI = CC[C@H](C)[C@H](NC)C(=O)O; dNMeF = CN[C@H](Cc1ccccc1)C(=O)O; N(CH2CH2)2CF2 = FC1(F)CCN(*)CC1; NMeD = CN[C@@H](CC(=O)O)C(=O)O; NMeL = CN[C@@H](CC(C)C)C(=O)O; NMeNva = CCC[C@H](NC)C(=O)O; NMeV = CN[C@H](C(=O)O)C(C)C; d(β3hA) = C[C@@H](N)CC(=O)O; NMeS = CN[C@@H](CO)C(=O)O; NMeA = CN[C@@H](C)C(=O)O; NMeAib = CNC(C)(C)C(=O)O; Nle = CCCC[C@H](N)C(=O)O; Piperidide = C1CCN(*)CC1; Pyrrolidide = C1CCN(*)C1; Ac5c = NC1(C(=O)O)CCCC1; Aze = O=C(O)[C@@H]1CCN1; Nva = CCC[C@H](N)C(=O)O; CH2CMe2OH = CC(C)(O)C*; Aib = CC(C)(N)C(=O)O; Isopentyl = CC(C)CC*; NEtG = CCNCC(=O)O; Sar = CNCC(=O)O

Molecular target: T1, Kras and SOS1 (biotin-tagged human Kras loaded with GDP, His-tagged human SOS1) (Homo sapiens, UniProt P01116, G12D)
T1 construct: made in house; host or cells: E. coli (stated for Kras only)
T1 sequence (P01116 1-188 isoform P01116-2 G12D): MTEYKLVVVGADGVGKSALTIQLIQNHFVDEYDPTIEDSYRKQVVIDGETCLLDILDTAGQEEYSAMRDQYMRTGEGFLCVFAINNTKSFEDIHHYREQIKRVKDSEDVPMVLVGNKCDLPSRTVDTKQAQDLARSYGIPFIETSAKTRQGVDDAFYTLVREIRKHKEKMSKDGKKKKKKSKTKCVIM
Assay: Protein-protein interaction inhibition between Kras and SOS1 (KrasGl2D-SOS PPI) using AlphaScreen
Format: binding
Details: AlphaScreen; biotin-tagged human Kras loaded with GDP, His-tagged human SOS1; read-out: KRAS G12D-SOS PPI IC50
How it was run: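 Read-out is acceptor-bead light at 520-620 nm, arising when 680 nm-irradiated nickel donor beads pass singlet oxygen to streptavidin acceptors. The bead pair links His-tagged SOS1 with biotin-tagged, GDP-bound Kras from E. coli.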

Going from `CCC[C@H]1C(=O)N[C@@H]([C@@H](C)CC)C(=O)N(C)[C@@H](C)C(=O)N2CC[C@H]2C(=O)N(C)[C@@H](CC2CCCCC2)C(=O)N(C)CC(=O)N[C@@H](CCc2ccc(C(F)(F)F)c(Cl)c2)C(=O)N2CCC[C@H]2C(=O)NC2(CCCC2)C(=O)N(C)[C@@H](C2CCCC2)C(=O)N(C)[C@H](C(=O)N2CCCCC2)CC(=O)N1C` [Compound 391, (5S,8S,11S,15S,18S,23aS,29S,35S,37aS)-8-((S)-sec-butyl)-29-(3-chloro-4-(trifluoromethyl)phenethyl)-35-(cyclohexylmethyl)-18-cyclopentyl-5,6,12,16,19,33,36-heptamethyl-15-(piperidine-1-carbonyl)-11-propyldocosahydro-2H,4H-spiro[azeto[2,1-u]pyrrolo[2,1-i][1,4,7,10,13,16,19,22,25,28,31]undecaazacyclotetratriacontine-21,1′-cyclopentan]-4,7,10,13,17,20,23,28,31,34,37(14H,22H)-undecaone] ([NMeNva]I[NMeA][Aze][NMeCha][Sar][hPhe(3-Cl-4-CF3)]P[Ac5c][NMeGly(cPent)][NMeD]-Piperidide; lactam N-11) to `CCC[C@@H]1NC(=O)[C@H](CC(C)C)N(C)C(=O)C[C@@H](C(=O)N2CCCCC2)N(C)C(=O)[C@H](C2CCCCC2)N(C)C(=O)C2(CCCC2)NC(=O)[C@@H]2CCCN2C(=O)[C@H](CCc2ccc(C(F)(F)F)c(Cl)c2)NC(=O)CN(C)C(=O)[C@H](CC2CCCCC2)N(C)C(=O)CN(C)C(=O)CN(C)C1=O` [Compound 495] ([NMeL][Nva][Sar][Sar][NMeCha][Sar][hPhe(3-Cl-4-CF3)]P[Ac5c][NMeChg][NMeD]-Piperidide; lactam N-11), the IC50 rises from 0.4 nM to 3.2 nM (8-fold).

Compared with `CC[C@H](C)[C@@H]1NC(=O)[C@H](C)N(C)C(=O)C[C@@H](C(=O)N2CCCCC2)N(C)C(=O)[C@H]([C@@H](C)CC)N(C)C(=O)C2(CCCC2)NC(=O)[C@@H](Cc2ccccc2)N(C)C(=O)[C@H](CCc2ccc(C(F)(F)F)c(Cl)c2)NC(=O)CN(C)C(=O)[C@H](Cc2ccc(C)cc2)N(C)C(=O)[C@@H]2CCN2C(=O)[C@H](C)N(C)C1=O` [Compound 1997] ([NMeA]I[NMeA][Aze][NMePhe(4-Me)][Sar][hPhe(3-Cl-4-CF3)][dNMeF][Ac5c][NMeI][NMeD]-Piperidide; lactam N-11), `CC[C@H](C)[C@@H]1NC(=O)[C@H](C)N(C)C(=O)C[C@@H](C)NC(=O)[C@H](C(C)C)N(C)C(=O)[C@H](Cc2ccccc2)N(C)C(=O)[C@H](CC(C)C)N(C)C(=O)[C@H](CCc2ccc(C(F)(F)F)cc2)NC(=O)CN(C)C(=O)[C@H](Cc2ccc(Cl)cc2)N(C)C(=O)[C@@H]2CCN2C(=O)CN(C)C1=O` [Compound 913] (cyclo([Aze][NMePhe(4-Cl)][Sar][hPhe(4-CF3)][NMeL][NMeF][NMeV][d(β3hA)][NMeA]I[Sar])) is 4.2-fold lower in IC50: 220 nM for the first, 53 nM for the second. The second is the more potent here.

Going from `CCCC[C@@H]1NC(=O)[C@H](Cc2cccc(OC)c2)NC(=O)CN(C)C(=O)[C@H](Cc2ccc(Cl)cc2)N(C)C(=O)CN(C)C(=O)CN(C)C(=O)[C@H]([C@@H](C)CC)NC(=O)[C@H](CC(C)C)N(C)C(=O)C[C@@H](C(=O)N2CCCC2)N(C)C(=O)[C@H](CC(C)C)NC(=O)C(C)(C)N(C)C1=O` [Compound 1412] ([NMeL]I[Sar][Sar][NMePhe(4-Cl)][Sar][Phe(3-OMe)][Nle][NMeAib]L[NMeD]-Pyrrolidide; lactam N-11) to `CC[C@H](C)[C@@H]1NC(=O)[C@H](CC(C)C)N(C)C(=O)C[C@@H](C(=O)N2CCCCC2)N(C)C(=O)[C@H](C2CCCCC2)N(C)C(=O)C2(CCCC2)NC(=O)[C@@H]2CCCN2C(=O)[C@H](CCc2ccc(C(F)(F)F)c(Cl)c2)NC(=O)CN(C)C(=O)[C@H](COC)N(C)C(=O)CN(C)C(=O)CN(C)C1=O` [Compound 623] ([NMeL]I[Sar][Sar][NMeS](Me)[Sar][hPhe(3-Cl-4-CF3)]P[Ac5c][NMeChg][NMeD]-Piperidide; lactam N-11), the IC50 falls from 310 nM to 1.8 nM (170-fold). The second is the more potent here.

`CC[C@H](C)[C@@H]1NC(=O)[C@H](CC(C)C)N(C)C(=O)C[C@@H](C(=O)N2CCCC2)N(C)C(=O)[C@H](C2CCCC2)N(C)C(=O)C2(CCCC2)NC(=O)[C@H](CC(=O)N2CCC(F)(F)CC2)N(C)C(=O)[C@H](CCc2ccc(C(F)(F)F)c(Cl)c2)NC(=O)CN(C)C(=O)[C@H](CC2CCCCC2)N(C)C(=O)[C@@H]2CCN2C(=O)[C@H](C)N(C)C1=O` [Compound 26] ([NMeL]I[NMeA][Aze][NMeCha][Sar][hPhe(3-Cl-4-CF3)][NMeD](N(CH2CH2)2CF2)[Ac5c][NMeGly(cPent)][NMeD]-Pyrrolidide; lactam N-11) and `CC[C@H](C)[C@@H]1NC(=O)[C@H](CC(C)C)N(C)C(=O)C[C@@H](C(=O)N2CCCCC2)NC(=O)[C@H](C2CCCCC2)N(C)C(=O)C2(CCCC2)NC(=O)[C@@H]2CCCN2C(=O)[C@H](CCc2ccc(C(F)(F)F)c(Cl)c2)NC(=O)CN(C)C(=O)[C@H](CC2CCCCC2)N(C)C(=O)CN(C)C(=O)CN(C)C1=O` [Compound 1274] ([NMeL]I[Sar][Sar][NMeCha][Sar][hPhe(3-Cl-4-CF3)]P[Ac5c][NMeChg]D-Piperidide; lactam N-11) are within 1.5-fold of each other in IC50: 4.3 nM for the first, 3.8 nM for the second.

`CC[C@H](C)[C@@H]1NC(=O)[C@H](CC(C)C)N(C)C(=O)C[C@@H](C)NC(=O)[C@H](CC(C)C)N(C)C(=O)C(C)(C)NC(=O)[C@H](COCC(C)(C)O)N(C)C(=O)[C@H](CCc2ccc(C(F)(F)F)c(Cl)c2)NC(=O)CN(C)C(=O)[C@H](COCCC(C)C)N(C)C(=O)CN(CC)C(=O)CN(C)C1=O` [Compound 1484] (cyclo([Aib][NMeL][d(β3hA)][NMeL]I[Sar][NEtG][NMeS](Isopentyl)[Sar][hPhe(3-Cl-4-CF3)][NMeS](CH2CMe2OH))) showed an IC50 of 190 nM.
